Like-named read-outs stand apart in the source and are kept apart here.
What was measured:
[1] = biological target: T1, human mGluR2 (hmGluR2) transiently over-expressed in HEK-293 cells (Homo sapiens, UniProt Q14416); assay: Human mGluR2 negative allosteric modulator evaluation using Ca++ functional assay (agonist and NAM activity); format: cell-based
T1 construct: expressed in transfected cells; host or cells: HEK-293 cells, transient co-transfection by electroporation
Procedure: Human mGluR2 Negative Allosteric Modulator Evaluation Using Ca^++ Functional Assay
Compounds of the present invention were tested successively for their agonist and negative allosteric modulator activities on human mGluR2 (hmGluR2) transiently over-expressed in HEK-293 cells. They exert agonist activity if they are able to activate mGluR2 by themselves, i.e., in absence of the endogenous agonist glutamate; and they exert negative allosteric modulator activity if they decrease the action of the endogenous agonist glutamate.
HEK-293 cells were maintained in Modified Eagle's Medium supplemented with 10% Foetal Calf Serum, 1% Penicillin/Streptomycin and 1% nonessential amino acids at 37° C./5% CO2.
Cells were plated after transfection onto polyornithine coated, clear bottom, black-walled, 96-well plates and cultured for 24 h.
Receptor activity was detected by changes in intracellular calcium measured using the fluorescent Ca^2+ sensitive dye, Fluo4AM (Molecular Probes).
The day of the assay, medium was aspirated and replaced during 3 hours by medium without serum supplemented with 1% Glutamax, 1% Penicillin/Streptomycin and 1% nonessential amino acids. Then, cells were washed with freshly prepared buffer B (HBSS 1× (PAA), Hepes 20 mM, MgSO4-7H2O 1 mM, Na2CO3 3.3 mM, CaCl2-2H2O 1.3 mM, 0.5% BSA, Probenecid 2.5 mM) and loaded at 37° C./5% CO2 for 1.5 hours with buffer B containing 1 μM Fluo4AM, 0.1 mg/mL Pluronic Acid, 7 μg/mL Glutamate Pyruvate Transaminase and 2 mM sodium pyruvate. Afterwards cells were washed twice with buffer B and 50 μL of this buffer were added to each well.
Agonist and negative allosteric modulator activities of compounds were consecutively evaluated on the same cells plate. […] Then, the cells were stimulated by an EC80 glutamate concentration and fluorescence was recorded for additional 60 s. EC80 glutamate concentration is the concentration giving 80% of the maximal glutamate response. Agonist and/or negative allosteric modulator activity(ies) were evaluated in comparison to basal signal or signal evoked by EC80 glutamate alone, respectively.
For potency determination, a dose-response test was performed using 8 concentrations of each compound of the invention. Dose-response curves were fitted using the sigmoidal dose-response (variable slope) analysis in GraphPad Prism program (Graph Pad Inc) and EC50 of agonist/IC50 of negative allosteric modulator activity was calculated. Dose-response experiments were all performed in duplicate, two times independently.

[2] = hmGluR2 in HEK-293 cells, EC80 glutamate, Fluo4AM calcium readout, read-out: mGluR2 negative allosteric modulator activity IC50

T1 sequence (Q14416 19-872): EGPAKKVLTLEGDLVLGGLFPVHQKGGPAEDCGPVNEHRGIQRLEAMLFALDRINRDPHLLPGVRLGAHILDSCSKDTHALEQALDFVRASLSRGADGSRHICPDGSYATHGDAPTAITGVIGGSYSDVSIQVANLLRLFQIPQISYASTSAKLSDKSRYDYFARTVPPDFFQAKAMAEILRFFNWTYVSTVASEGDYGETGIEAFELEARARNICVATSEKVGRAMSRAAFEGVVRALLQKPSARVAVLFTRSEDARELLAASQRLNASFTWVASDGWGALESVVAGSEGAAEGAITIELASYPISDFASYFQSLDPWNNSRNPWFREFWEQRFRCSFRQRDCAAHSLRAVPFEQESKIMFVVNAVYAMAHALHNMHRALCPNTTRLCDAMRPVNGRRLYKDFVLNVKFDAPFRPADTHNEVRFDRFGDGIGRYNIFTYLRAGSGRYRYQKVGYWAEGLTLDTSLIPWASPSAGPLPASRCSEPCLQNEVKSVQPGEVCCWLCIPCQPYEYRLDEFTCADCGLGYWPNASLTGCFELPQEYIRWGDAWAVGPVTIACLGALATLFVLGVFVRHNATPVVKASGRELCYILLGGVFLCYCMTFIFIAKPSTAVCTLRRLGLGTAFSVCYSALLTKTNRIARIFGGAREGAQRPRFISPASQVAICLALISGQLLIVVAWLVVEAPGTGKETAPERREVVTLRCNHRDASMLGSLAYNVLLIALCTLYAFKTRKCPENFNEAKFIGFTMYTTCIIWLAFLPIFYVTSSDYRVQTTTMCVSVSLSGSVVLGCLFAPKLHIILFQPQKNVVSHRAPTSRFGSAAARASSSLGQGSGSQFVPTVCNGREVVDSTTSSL

Compound	IC50 [1, 2]	melting point	IC50 ([1]; N-methylated compounds, statement in description, read-out: IC50 for mGluR2)
Cl.Cn1c(=O)c2ccc(-c3cccnc3)cc2n2nc(C3CCOCC3)cc12 [Example 89, 4-Methyl-8-pyridin-3-yl-2-(tetrahydro-pyran-4-yl)-4H-pyrazolo[1,5-a]quinazolin-5-one]	< 1 µM	202 to 224 °C	
Cc1ccc(-c2ccc3c(=O)n(C)c4cc(-c5ccnc(C(F)(F)F)c5)nn4c3c2)c(C)n1.Cl [Example 143, 8-(2,6-Dimethyl-pyridin-3-yl)-4-methyl-2-(2-trifluoromethyl-pyridin-4-yl)-4H-pyrazolo[1,5-a]quinazolin-5-one]	< 1 µM	> 250 °C	
CCc1cc2n(C)c(=O)c3ccc(-c4ccc(N)nc4)cc3n2n1.Cl [Example 49, 8-(6-Amino-pyridin-3-yl)-2-ethyl-4-methyl-4H-pyrazolo[1,5-a]quinazolin-5-one]	< 1 µM	> 250 °C	
CN(C)S(=O)(=O)c1cccc(-c2ccc3c(=O)n(C)c4cc(-c5ccccc5)nn4c3c2)c1 [Example 38, N,N-Dimethyl-3-(4-methyl-5-oxo-2-phenyl-4,5-dihydro-pyrazolo[1,5-a]quinazolin-8-yl)-benzenesulfonamide]	< 1 µM	202 to 204 °C	< 0.03 µM
Cc1cc(-c2ccc3c(=O)n(C)c4cc(-c5ccccc5)cn4c3c2)cc(C)n1.Cl [Example 111, 8-(2,6-Dimethyl-pyridin-4-yl)-4-methyl-2-phenyl-4H-pyrrolo[1,2-a]quinazolin-5-one]	< 1 µM	> 250 °C	
Cc1cc(-c2cc3n(C)c(=O)c4ccc(-c5cnn(C)c5)cc4n3n2)cc(C)n1.Cl [Example 122, 2-(2,6-Dimethyl-pyridin-4-yl)-4-methyl-8-(1-methyl-1H-pyrazol-4-yl)-4H-pyrazolo[1,5-a]quinazolin-5-one]	< 1 µM	> 250 °C	
CCn1c(=O)c2ccc(-c3cc(C)nc(C)c3)cc2n2nc(C3CCCC3)cc12.Cl [Example 70, 2-Cyclopentyl-8-(2,6-dimethyl-pyridin-4-yl)-4-ethyl-4H-pyrazolo[1,5-a]quinazolin-5-one]	< 1 µM	> 250 °C	
Cc1ncncc1-c1ccc2c(=O)n(C)c3cc(-c4ccnc(C(F)(F)F)c4)nn3c2c1.Cl [Example 144, 4-Methyl-8-(4-methyl-pyrimidin-5-yl)-2-(2-trifluoromethyl-pyridin-4-yl)-4H-pyrazolo[1,5-a]quinazolin-5-one]	< 1 µM	> 250 °C	
Cc1cc(-c2ccc3c(=O)n(C)c4cc(C5CCOC5)nn4c3c2)cc(C)n1.Cl (stereo not shown) [Example 106, 8-(2,6-Dimethyl-pyridin-4-yl)-4-methyl-2-(tetrahydro-furan-3-yl)-4H-pyrazolo[1,5-a]quinazolin-5-one]	< 1 µM	> 250 °C	
Cl.Cn1cc(-c2cc3n(C)c(=O)c4ccc(-c5ccc(N)nc5)cc4n3n2)cn1 [Example 128, 8-(6-Amino-pyridin-3-yl)-4-methyl-2-(1-methyl-1H-pyrazol-4-yl)-4H-pyrazolo[1,5-a]quinazolin-5-one]	< 1 µM	217 to 228 °C	
CN(C)S(=O)(=O)c1cccc(-c2ccc3c(=O)n(CC4CC4)c4cc(-c5ccccc5)nn4c3c2)c1 [Example 42, 3-(4-Cyclopropylmethyl-5-oxo-2-phenyl-4,5-dihydro-pyrazolo[1,5-a]quinazolin-8-yl)-N,N-dimethyl-benzenesulfonamide]	< 1 µM	115 to 119 °C	
Cc1cc(-c2cc3n(C)c(=O)c4ccc(-c5c[nH]nc5C)cc4n3n2)cc(C)n1.Cl [Example 121, 2-(2,6-Dimethyl-pyridin-4-yl)-4-methyl-8-(3-methyl-1H-pyrazol-4-yl)-4H-pyrazolo[1,5-a]quinazolin-5-one]	< 1 µM	> 250 °C	
Cc1n[nH]c(C)c1-c1ccc2c(=O)n(C)c3cc(-c4ccnc(C(F)(F)F)c4)nn3c2c1 [Example 145, 8-(3,5-Dimethyl-1H-pyrazol-4-yl)-4-methyl-2-(2-trifluoromethyl-pyridin-4-yl)-4H-pyrazolo[1,5-a]quinazolin-5-one]	< 1 µM	> 250 °C	

Continued, values first:

IC50 [1, 2]	melting point	IC50 ([1]; N-methylated compounds, statement in description, read-out: IC50 for mGluR2)	Compound
< 1 µM	> 250 °C		CCCc1cc2n(C)c(=O)c3ccc(-c4ccc(N)nc4)cc3n2n1.Cl [Example 50, 8-(6-Amino-pyridin-3-yl)-4-methyl-2-propyl-4H-pyrazolo[1,5-a]quinazolin-5-one]
< 1 µM	223 to 229 °C		Cc1[nH]ncc1-c1ccc2c(=O)n(C)c3cc(C4CCOCC4)nn3c2c1 [Example 92, 4-Methyl-8-(5-methyl-1H-pyrazol-4-yl)-2-(tetrahydro-pyran-4-yl)-4H-pyrazolo[1,5-a]quinazolin-5-one]
< 1 µM	239 to 240 °C		CCc1nc(N)ccc1-c1ccc2c(=O)n(C)c3cc(-c4ccccc4)nn3c2c1.Cl [Example 27, 8-(6-Amino-2-ethyl-pyridin-3-yl)-4-methyl-2-phenyl-4H-pyrazolo[1,5-a]quinazolin-5-one]
< 1 µM	> 250 °C		Cc1n[nH]cc1-c1ccc2c(=O)n(C)c3cc(C4CCCCC4)nn3c2c1 [Example 75, 2-Cyclohexyl-4-methyl-8-(3-methyl-1H-pyrazol-4-yl)-4H-pyrazolo[1,5-a]quinazolin-5-one]
< 1 µM	> 250 °C		Cc1cc(-c2ccc3c(=O)n(CC(F)F)c4cc(C5CCOCC5)nn4c3c2)cc(C)n1.Cl [Example 102, 4-(2,2-Difluoro-ethyl)-8-(2,6-dimethyl-pyridin-4-yl)-2-(tetrahydro-pyran-4-yl)-4H-pyrazolo[1,5-a]quinazolin-5-one]
< 1 µM	> 250 °C		Cl.Cn1cc(-c2cc3n(C)c(=O)c4ccc(-c5ccncc5)cc4n3n2)cn1 [Example 129, 4-Methyl-2-(1-methyl-1H-pyrazol-4-yl)-8-pyridin-4-yl-4H-pyrazolo[1,5-a]quinazolin-5-one]
< 1 µM	182 to 193 °C		Cc1cc(-c2ccc3c(=O)n(C)c4cc(C5CCCOC5)nn4c3c2)cc(C)n1.Cl (stereo not shown) [Example 108, 8-(2,6-Dimethyl-pyridin-4-yl)-4-methyl-2-(tetrahydro-pyran-3-yl)-4H-pyrazolo[1,5-a]quinazolin-5-one]
< 1 µM	> 250 °C		Cl.Cn1c(=O)c2ccc(-c3ccc(N)nc3)cc2n2nc(C3CC3)cc12 [Example 63, 8-(6-Amino-pyridin-3-yl)-2-cyclopropyl-4-methyl-4H-pyrazolo[1,5-a]quinazolin-5-one]
< 1 µM	192 to 193 °C		Cl.Cn1c(=O)c2ccc(-c3cnc(N)cn3)cc2n2nc(-c3ccccc3)cc12 [Example 30, 8-(5-Amino-pyrazin-2-yl)-4-methyl-2-phenyl-4H-pyrazolo[1,5-a]quinazolin-5-one]
< 1 µM	> 250 °C		Cl.Cn1c(=O)c2ccc(-c3cnc(N)nc3)cc2n2nc(-c3ccccc3)cc12 [Example 31, 8-(2-Amino-pyrimidin-5-yl)-4-methyl-2-phenyl-4H-pyrazolo[1,5-a]quinazolin-5-one]
< 1 µM	228 to 231 °C		Cn1c(=O)c2ccc(-c3ncco3)cc2n2nc(-c3ccccc3)cc12 [Example 20, 4-Methyl-8-oxazol-2-yl-2-phenyl-4H-pyrazolo[1,5-a]quinazolin-5-one]

Reference: patent publication US9434734B2, “Substituted pyrazoloquinazolinones and pyrroloquinazolinones as allosteric modulators of group II metabotropic glutamate receptors” (Domain Therapeutics, priority 2012, dated 2016)
